This is an account of results in patent publication US11130756B2, “[1,2,4]Triazolo[4,3-A]pyridinyl substituted indole compounds” (BRISTOL-MYERS SQUIBB COMPANY, priority 2017, dated 2021).

Format in all cases: cell-based
In one test the target is T1, human TLR7 (Homo sapiens, UniProt Q9NYK1).
T1 construct: host or cells: HEK-Blue cells
T1 sequence (Q9NYK1 27-1049): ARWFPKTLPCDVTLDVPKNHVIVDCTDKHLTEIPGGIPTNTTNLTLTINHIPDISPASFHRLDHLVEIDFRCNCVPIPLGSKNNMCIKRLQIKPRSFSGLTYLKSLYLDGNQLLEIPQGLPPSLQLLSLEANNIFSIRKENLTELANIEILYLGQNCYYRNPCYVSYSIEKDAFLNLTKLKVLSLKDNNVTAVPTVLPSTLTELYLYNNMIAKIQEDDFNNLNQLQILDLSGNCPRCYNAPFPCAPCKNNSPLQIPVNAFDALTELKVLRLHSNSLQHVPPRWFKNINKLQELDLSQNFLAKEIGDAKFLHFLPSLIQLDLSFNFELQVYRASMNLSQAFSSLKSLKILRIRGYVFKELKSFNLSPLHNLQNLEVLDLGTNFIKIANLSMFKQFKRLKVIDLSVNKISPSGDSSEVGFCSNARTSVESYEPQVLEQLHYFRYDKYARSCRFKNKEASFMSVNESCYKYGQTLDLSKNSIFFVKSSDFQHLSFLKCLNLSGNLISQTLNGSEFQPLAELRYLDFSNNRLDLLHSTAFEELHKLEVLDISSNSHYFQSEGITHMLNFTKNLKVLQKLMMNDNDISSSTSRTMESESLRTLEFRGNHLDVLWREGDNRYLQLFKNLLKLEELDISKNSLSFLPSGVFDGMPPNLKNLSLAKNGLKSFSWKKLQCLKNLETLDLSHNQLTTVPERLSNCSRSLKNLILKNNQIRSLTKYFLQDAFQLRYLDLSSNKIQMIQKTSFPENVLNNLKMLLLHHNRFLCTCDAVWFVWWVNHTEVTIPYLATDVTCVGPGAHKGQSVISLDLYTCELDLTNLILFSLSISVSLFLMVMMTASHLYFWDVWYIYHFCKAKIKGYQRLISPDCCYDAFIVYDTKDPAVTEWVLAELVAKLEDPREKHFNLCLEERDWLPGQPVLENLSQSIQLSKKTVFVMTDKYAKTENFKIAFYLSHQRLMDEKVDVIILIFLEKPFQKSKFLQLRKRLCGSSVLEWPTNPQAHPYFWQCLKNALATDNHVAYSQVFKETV
The experiment in a line: TLR7 inhibition reporter assay (HEK-Blue, SEAP). The note with it: HEK-Blue cells overexpressing human TLR7, gardiquimod 7.5 μM, 22 hour incubation. As for the experimental part: (§1) TLR7/8/9 Inhibition Reporter Assays
(§2) HEK-Blue™-cells (Invivogen) overexpressing human TLR7, TLR8 or TLR9 receptors were used for screening inhibitors of these receptors using an inducible SEAP (secreted embryonic alkaline phosphatase) reporter gene under the control of the IFN-β minimal promoter fused to five NF-κB and AP-1-binding sites. Briefly, cells are seeded into Greiner 384 well plates (15000 cells per well for TLR7, 20,000 for TLR8 and 25,000 for TLR9) and then treated with test compounds in DMSO to yield a final dose response concentration range of 0.05 nM-50 μM. After a 30 minute compound pre-treatment at room temperature, the cells are then stimulated with a TLR7 ligand (gardiquimod at a final concentration of 7.5 μM), TLR8 ligand (R848 at a final concentration of 15.9 μM) or TLR9 ligand (ODN2006 at a final concentration of 5 nM) to activate NF-κB and AP-1 which induce the production of SEAP. After a 22 hour incubation at 37° C., 5% CO2, SEAP levels are determined with the addition of HEK-Blue™ Detection reagent (Invivogen), a cell culture medium that allows for detection of SEAP, according to manufacturer's specifications. The percent inhibition is determined as the % reduction in the HEK-Blue signal present in wells treated with agonist plus DMSO alone compared to wells treated with a known inhibitor.

The target of the next test is T2, human TLR8 (Homo sapiens, UniProt Q9NR97).
T2 construct: host or cells: HEK-Blue cells
T2 sequence (Q9NR97 27-1041): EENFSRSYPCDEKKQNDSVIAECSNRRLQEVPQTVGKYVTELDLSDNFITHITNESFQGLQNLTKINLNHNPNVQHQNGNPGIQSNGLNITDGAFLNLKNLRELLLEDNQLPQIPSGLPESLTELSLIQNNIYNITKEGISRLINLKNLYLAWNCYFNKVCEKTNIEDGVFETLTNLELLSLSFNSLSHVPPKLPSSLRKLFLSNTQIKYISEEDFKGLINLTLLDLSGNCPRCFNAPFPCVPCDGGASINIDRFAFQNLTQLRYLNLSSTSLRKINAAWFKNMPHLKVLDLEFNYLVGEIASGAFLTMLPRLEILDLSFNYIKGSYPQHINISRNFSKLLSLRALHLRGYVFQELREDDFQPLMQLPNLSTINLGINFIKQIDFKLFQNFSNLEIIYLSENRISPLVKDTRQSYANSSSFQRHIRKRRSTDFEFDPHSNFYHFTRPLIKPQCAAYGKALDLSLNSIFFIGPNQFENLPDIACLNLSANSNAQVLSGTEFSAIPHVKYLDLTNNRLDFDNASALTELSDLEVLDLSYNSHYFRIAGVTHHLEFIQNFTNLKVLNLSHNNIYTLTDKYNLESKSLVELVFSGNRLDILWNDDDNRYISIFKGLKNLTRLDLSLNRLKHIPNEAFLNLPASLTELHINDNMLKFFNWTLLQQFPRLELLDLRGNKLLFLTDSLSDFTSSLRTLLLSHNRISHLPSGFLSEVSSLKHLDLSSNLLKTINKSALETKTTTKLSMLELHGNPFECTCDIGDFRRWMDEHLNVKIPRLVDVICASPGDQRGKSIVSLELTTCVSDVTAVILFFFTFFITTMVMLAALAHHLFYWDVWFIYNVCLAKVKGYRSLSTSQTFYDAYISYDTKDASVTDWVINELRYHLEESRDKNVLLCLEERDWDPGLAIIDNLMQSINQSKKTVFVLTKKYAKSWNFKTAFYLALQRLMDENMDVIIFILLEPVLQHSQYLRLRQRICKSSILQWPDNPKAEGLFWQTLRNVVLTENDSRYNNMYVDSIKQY
In words: TLR8 inhibition reporter assay (HEK-Blue, SEAP). The following applies: HEK-Blue cells overexpressing human TLR8, R848 15.9 μM, 22 hour incubation. As for the experimental part:
as §1, §2
A general note: A reporter such as luciferase makes a cellular process visible.

The target in another test is T3, human TLR9 (Homo sapiens, UniProt Q9NR96).
T3 construct: host or cells: HEK-Blue cells
T3 sequence (Q9NR96 26-1032): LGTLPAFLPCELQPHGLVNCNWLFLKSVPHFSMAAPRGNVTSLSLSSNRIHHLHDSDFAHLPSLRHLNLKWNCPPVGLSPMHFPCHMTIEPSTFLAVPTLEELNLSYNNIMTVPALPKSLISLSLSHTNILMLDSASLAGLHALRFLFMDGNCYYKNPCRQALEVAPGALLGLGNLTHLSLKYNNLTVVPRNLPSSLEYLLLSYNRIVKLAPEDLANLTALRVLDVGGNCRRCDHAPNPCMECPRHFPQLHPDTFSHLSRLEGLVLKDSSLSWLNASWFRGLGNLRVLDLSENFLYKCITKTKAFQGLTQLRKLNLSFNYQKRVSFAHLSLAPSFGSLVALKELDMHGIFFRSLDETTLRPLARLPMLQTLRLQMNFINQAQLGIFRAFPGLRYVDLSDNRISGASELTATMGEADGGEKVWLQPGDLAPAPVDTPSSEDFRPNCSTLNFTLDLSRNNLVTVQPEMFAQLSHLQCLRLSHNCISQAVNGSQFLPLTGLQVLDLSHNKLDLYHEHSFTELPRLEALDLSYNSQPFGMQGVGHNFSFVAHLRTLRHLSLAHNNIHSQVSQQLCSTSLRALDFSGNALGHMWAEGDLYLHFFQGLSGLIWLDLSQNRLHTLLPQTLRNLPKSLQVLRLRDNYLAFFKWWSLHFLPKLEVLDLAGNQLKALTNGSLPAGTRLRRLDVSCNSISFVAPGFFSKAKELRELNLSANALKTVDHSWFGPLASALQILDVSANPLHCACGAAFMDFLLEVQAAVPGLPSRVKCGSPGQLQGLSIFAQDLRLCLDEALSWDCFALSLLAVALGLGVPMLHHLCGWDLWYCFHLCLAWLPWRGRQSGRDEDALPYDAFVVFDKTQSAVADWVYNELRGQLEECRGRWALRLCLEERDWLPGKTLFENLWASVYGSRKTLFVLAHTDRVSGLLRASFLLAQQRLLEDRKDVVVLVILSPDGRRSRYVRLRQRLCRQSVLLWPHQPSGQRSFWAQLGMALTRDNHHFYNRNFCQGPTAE
The experiment in a line: TLR9 inhibition reporter assay (HEK-Blue, SEAP). The note with it: HEK-Blue cells overexpressing human TLR9, ODN2006 5 nM, 22 hour incubation. As for the experimental part:
as §1, §2

With “1-(4-(3-isopropyl-2-(8-methoxy-5-methyl-[1,2,4]triazolo[4,3-a)pyridin-6-yl)-1H-indol-5-yl)piperidin-1-yl)-2-methylpropan-2-ol [Example 62]”, the IC50 – broadly, the concentration at which inhibition is half-maximal – at human TLR7 stood at 0.0012 µM; against human TLR8 it was 0.0064 µM; against human TLR9, 0.381 µM.
Turning to `Cc1c(-c2[nH]c3ccc(C4CCN(C5CCOC5)CC4)cc3c2C(C)C)cn2cnnc2c1C` (single isomer, unassigned) [Example 102, 6-(3-isopropyl-5-(1-(tetrahydrofuran-3-yl)piperidin-4-yl)-1H-indol-2-yl)-7,8-dimethyl-[1,2,4]triazolo[4,3-a]pyridine], the IC50 at human TLR7 was 0.0039 µM; on human TLR8, 0.0082 µM; on human TLR9, 5.46 µM.
As to `Cc1c(-c2[nH]c3ccc(C4CCN(C5CCOC5)CC4)cc3c2C(C)C)cn2cnnc2c1C` (single isomer, unassigned) [Example 103, 6-(3-isopropyl-5-(1-(tetrahydrofuran-3-yl)piperidin-4-yl)-1H-indol-2-yl)-7,8-dimethyl-[1,2,4]triazolo[4,3-a]pyridine], the IC50 amounted to 0.0051 µM against human TLR7, 0.0117 µM against human TLR8 and 10.2 µM against human TLR9.
For the molecule `Cc1c(-c2[nH]c3ccc(C4CC(C)N(CCS(C)(=O)=O)C(C)C4)cc3c2C(C)C)cn2cnnc2c1C` (single isomer, unassigned) [Example 110, 6-(5-(2,6-dimethyl-1-(2-(methylsulfonyl)ethyl)piperidin-4-yl)-3-isopropyl-1H-indol-2-yl)-7,8-dimethyl-[1,2,4]triazolo[4,3-a]pyridine], the 50% inhibitory concentration (IC50) stood at 0.0063 µM at human TLR7, 0.0194 µM against human TLR8 and 6.63 µM against human TLR9.
In the case of `Cc1c(-c2[nH]c3ccc(C4CC(C)N(CCS(C)(=O)=O)C(C)C4)cc3c2C(C)C)cn2cnnc2c1C` (single isomer, unassigned) [Example 111, 6-(5-(2,6-dimethyl-1-(2-(methylsulfonyl)ethyl)piperidin-4-yl)-3-isopropyl-1H-indol-2-yl)-7,8-dimethyl-[1,2,4]triazolo[4,3-a]pyridine], the IC50 on human TLR7 is 0.0239 µM; at human TLR8, 0.113 µM; on human TLR9, 19.2 µM.
`Cc1c(-c2[nH]c3ccc(C4CC(C)N(CC5(C)COC5)C(C)C4)cc3c2C(C)C)cn2cnnc2c1C` (single isomer, unassigned) [Example 113, 6-(5-(2,6-dimethyl-1-((3-methyloxetan-3-yl)methyl)piperidin-4-yl)-3-isopropyl-1H-indol-2-yl)-7,8-dimethyl-[1,2,4]triazolo[4,3-a]pyridine]: the IC50 against human TLR7 stood at 0.0024 µM; against human TLR8 it was 0.0596 µM; at human TLR9, 4.83 µM.
Take `Cc1c(-c2[nH]c3ccc(C4CC(C)N(CC5(C)COC5)C(C)C4)cc3c2C(C)C)cn2cnnc2c1C` (single isomer, unassigned) [Example 114, 6-(5-(2,6-dimethyl-1-((3-methyloxetan-3-yl)methyl)piperidin-4-yl)-3-isopropyl-1H-indol-2-yl)-7,8-dimethyl-[1,2,4]triazolo[4,3-a]pyridine]: the values for the IC50 against human TLR7, on human TLR8 and against human TLR9 were 0.0137 µM, 0.226 µM and 7.32 µM, respectively.
On the same counts, the results for `Cc1c(-c2[nH]c3ccc(C4C[C@H]5CC[C@@H](C4)N5)cc3c2C(C)C)cn2cnnc2c1C` (single isomer, unassigned) [Example 116, 6-(5-(8-azabicyclo[3.2.1]octan-3-yl)-3-isopropyl-1H-indol-2-yl)-7,8-dimethyl-[1,2,4]triazolo[4,3-a]pyridine] are 0.0099 µM, 0.102 µM and 1.11 µM.
For the molecule `Cc1c(-c2[nH]c3ccc(C4C[C@H]5CC[C@@H](C4)N5)cc3c2C(C)C)cn2cnnc2c1C` (single isomer, unassigned) [Example 117, 6-(5-(8-azabicyclo[3.2.1]octan-3-yl)-3-isopropyl-1H-indol-2-yl)-7,8-dimethyl-[1,2,4]triazolo[4,3-a]pyridine], the IC50 came to 0.0316 µM against human TLR7, 0.494 µM at human TLR8 and 6.09 µM against human TLR9.
Regarding `Cc1c(-c2[nH]c3ccc(C4C[C@H]5CC[C@@H](C4)N5CC(=O)N(C)C)cc3c2C(C)C)cn2cnnc2c1C` (single isomer, unassigned) [Example 118], the values for the IC50 against human TLR7, at human TLR8 and at human TLR9 were 0.0087 µM, 0.159 µM and 5.46 µM, respectively.
